According to patent US20240051955A1, “4-AMINO-3-(4-PHENOXYPHENYL)-1,3-DIHYDRO-2H-IMIDAZO[4,5-C]PYRIDIN-2-ONE DERIVATIVES AND SALTS THEREOF” (Genzyme Corporation, priority 2020, published 2024):
pIC50: −log10 of the molar value.

How the values were obtained:
[1] = molecular target: BTK(h) (Homo sapiens (Human), UniProt Q06187); assay: BTK(h) kinase activity study; assay type: biochemical; conditions: no pre-incubation of compound with enzyme/substrate mix prior to ATP addition
Procedure: Compounds of Formula Ib, Formula II, and Formula III were tested against BTK(h) as described herein. All compounds tested were prepared to a working stock of 50× final assay concentration in 100% DMSO. Where appropriate, more concentrated stocks were diluted manually to 50× using 100% DMSO. Compounds, which were powders, were reconstituted to a 10 mM stock in 100% DMSO before further dilution to 50×.
The required volume of the 50× stock of test compound was added to the assay well before a reaction mix containing the enzyme and substrate was added. The reaction was initiated by the addition of ATP at the selected concentration. There was no pre-incubation of the compound with the enzyme/substrate mix prior to ATP addition.
Results are expressed as kinase activity remaining, as a percentage of the DMSO control. This is calculated using the following formula: […]
For IC50 determinations, data are analyzed using XLFit version 5.3 (ID Business Solutions). Sigmoidal dose-response (variable slope) curves are fit based on the mean result for each test concentration using non-linear regression analysis. Where the top and/or bottom of the curve fall >10% out with 100 and 0, respectively, either or both of these limits may be constrained at 100 and 0, provided that the QC criterion on R^2 is met.

[2] = molecular target: Dopamine transporter (h) (Homo sapiens (Human), UniProt Q01959); assay: Dopamine transporter (h) binding assay, [3H]BTCP; conditions: Human recombinant (CHO cells); [3H]BTCP 4 nM; 120 min 4° C.
Procedure: (§1) Compounds of Formula Ia, Formula Ib, Formula III, Formula IV, and Formula V were tested in various in vitro assays. Compound binding was calculated as a % inhibition of the binding of a radioactively labeled ligand specific for each target. Compound enzyme inhibition effect was calculated as a % inhibition of control enzyme activity.
The general procedure is noted below. See Pristupa, Z. B. et al. (1994), Mol. Pharmacol., 45: 125-135. Minor variations to the experimental protocol described below may have occurred during the testing, but if so, they had no impact on the quality of the results obtained.

[3] = molecular target: H2 (h) (Homo sapiens (Human), UniProt P25021); assay: H2 (h) binding assay, [125I]APT; conditions: Human recombinant (CHO cells); [125I]APT 0.075 nM; 120 min RT
[4] = molecular target: δ (DOP) (h) (Homo sapiens (Human), UniProt P41143); assay: δ (DOP) (h) binding assay, [3H]DADLE; conditions: Human recombinant (Chem-1 (RBL) cells); [3H]DADLE 0.5 nM; 60 min RT
Procedure: as §1
The general procedure is noted below. See Simonin, F. et al. (1994), Mol. Pharmacol., 46: 1015-1021. Minor variations to the experimental protocol described below may have occurred during the testing but if so, they had no impact on the quality of the results obtained.

[5] = molecular target: kappa (h) (KOP) (Homo sapiens (Human), UniProt P41145); assay: kappa (h) (KOP) binding assay, [3H]U69593; conditions: Human recombinant (RBL cells); [3H]U69593 0.5 nM; 60 min RT
Procedure: as §1
The general procedure is noted below. See Simonin, F. et al. (1995), Proc. Natl. Acad. Sci. U.S.A., 92: 7006-7010. Minor variations to the experimental protocol described below may have occurred during the testing but if so, they had no impact on the quality of the results obtained.

[6] = molecular target: 5-HT5a (h) (Homo sapiens (Human), UniProt P47898); assay: 5-HT5a (h) binding assay, [3H]LSD; conditions: Human recombinant (HEK-293 cells); [3H]LSD 1.5 nM; 120 min 37° C.
Procedure: as §1
The general procedure is noted below. See Rees, S. et al. (1994), FEBS Lett., 355: 242-246. Minor variations to the experimental protocol described below may have occurred during the testing but if so, they had no impact on the quality of the results obtained.

[7] = molecular target: Norepinephrine transporter (h) (Homo sapiens (Human), UniProt P23975); assay: Norepinephrine transporter (h) binding assay, [3H]nisoxetine; conditions: Human recombinant (CHO cells); [3H]nisoxetine 1 nM; 120 min 4° C.
Procedure: as §1
The general procedure is noted below. See Pacholczyk, T. et al. (1991), Nature, 350: 350-354. Minor variations to the experimental protocol described below may have occurred during the testing but if so, they had no impact on the quality of the results obtained.

BTK(h), sequence (Q06187 whole entry): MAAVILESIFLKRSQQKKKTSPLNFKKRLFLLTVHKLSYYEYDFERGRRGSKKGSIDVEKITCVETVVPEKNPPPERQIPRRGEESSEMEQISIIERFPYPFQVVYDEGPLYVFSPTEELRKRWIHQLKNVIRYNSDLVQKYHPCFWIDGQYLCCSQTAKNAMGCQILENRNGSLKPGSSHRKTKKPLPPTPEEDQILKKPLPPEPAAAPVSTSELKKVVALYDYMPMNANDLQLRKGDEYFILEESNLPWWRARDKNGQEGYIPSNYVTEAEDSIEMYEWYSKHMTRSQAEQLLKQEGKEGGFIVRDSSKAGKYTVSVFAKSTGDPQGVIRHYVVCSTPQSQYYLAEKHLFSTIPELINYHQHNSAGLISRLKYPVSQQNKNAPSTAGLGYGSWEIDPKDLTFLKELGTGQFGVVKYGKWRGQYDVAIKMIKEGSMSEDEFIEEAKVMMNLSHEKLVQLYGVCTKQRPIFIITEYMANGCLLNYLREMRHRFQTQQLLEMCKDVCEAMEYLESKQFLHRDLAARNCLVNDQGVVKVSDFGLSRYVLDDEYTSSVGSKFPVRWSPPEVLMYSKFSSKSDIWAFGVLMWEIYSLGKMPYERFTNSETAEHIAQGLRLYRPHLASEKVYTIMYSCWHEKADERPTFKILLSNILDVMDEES
Dopamine transporter (h), sequence (Q01959 whole entry): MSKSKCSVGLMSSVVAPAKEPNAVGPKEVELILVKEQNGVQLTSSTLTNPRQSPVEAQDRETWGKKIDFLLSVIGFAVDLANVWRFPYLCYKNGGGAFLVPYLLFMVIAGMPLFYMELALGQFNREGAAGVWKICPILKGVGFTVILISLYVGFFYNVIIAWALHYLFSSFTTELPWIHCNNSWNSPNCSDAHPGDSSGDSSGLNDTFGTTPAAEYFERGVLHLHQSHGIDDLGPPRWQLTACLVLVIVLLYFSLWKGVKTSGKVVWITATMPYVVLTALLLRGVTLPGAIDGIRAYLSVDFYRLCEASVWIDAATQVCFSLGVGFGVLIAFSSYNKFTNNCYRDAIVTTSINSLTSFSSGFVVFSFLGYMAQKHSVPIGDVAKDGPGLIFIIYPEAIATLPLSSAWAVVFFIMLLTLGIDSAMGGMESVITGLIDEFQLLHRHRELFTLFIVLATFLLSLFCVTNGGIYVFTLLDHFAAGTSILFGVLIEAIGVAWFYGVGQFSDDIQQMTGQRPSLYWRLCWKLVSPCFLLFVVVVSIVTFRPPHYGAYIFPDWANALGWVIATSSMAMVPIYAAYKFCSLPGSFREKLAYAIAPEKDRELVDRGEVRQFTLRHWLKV
Norepinephrine transporter (h), sequence (P23975 whole entry): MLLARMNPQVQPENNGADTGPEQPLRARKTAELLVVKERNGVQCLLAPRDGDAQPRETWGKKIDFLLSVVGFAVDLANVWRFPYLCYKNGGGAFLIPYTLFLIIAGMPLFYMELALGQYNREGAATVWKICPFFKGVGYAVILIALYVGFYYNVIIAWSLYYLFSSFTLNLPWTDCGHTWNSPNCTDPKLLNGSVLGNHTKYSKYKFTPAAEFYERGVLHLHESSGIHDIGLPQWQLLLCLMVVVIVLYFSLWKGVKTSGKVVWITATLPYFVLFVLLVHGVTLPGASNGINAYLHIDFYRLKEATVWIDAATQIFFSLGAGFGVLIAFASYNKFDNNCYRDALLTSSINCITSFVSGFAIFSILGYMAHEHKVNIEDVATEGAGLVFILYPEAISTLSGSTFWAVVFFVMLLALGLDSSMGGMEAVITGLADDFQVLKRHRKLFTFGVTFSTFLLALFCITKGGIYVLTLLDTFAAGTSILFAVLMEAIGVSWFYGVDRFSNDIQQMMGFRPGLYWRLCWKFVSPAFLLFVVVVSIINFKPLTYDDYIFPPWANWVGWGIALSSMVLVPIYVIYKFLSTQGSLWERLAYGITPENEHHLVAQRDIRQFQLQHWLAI
δ (DOP) (h), sequence (P41143 whole entry): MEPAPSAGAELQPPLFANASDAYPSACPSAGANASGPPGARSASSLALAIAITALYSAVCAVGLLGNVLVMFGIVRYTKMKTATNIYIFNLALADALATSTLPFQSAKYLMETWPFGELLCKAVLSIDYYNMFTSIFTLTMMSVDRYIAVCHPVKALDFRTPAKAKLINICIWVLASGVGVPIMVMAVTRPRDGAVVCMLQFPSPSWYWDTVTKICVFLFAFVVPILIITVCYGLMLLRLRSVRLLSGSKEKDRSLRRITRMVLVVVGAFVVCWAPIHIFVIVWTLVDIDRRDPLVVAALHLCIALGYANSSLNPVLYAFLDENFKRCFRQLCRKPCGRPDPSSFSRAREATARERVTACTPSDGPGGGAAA
H2 (h), sequence (P25021 whole entry): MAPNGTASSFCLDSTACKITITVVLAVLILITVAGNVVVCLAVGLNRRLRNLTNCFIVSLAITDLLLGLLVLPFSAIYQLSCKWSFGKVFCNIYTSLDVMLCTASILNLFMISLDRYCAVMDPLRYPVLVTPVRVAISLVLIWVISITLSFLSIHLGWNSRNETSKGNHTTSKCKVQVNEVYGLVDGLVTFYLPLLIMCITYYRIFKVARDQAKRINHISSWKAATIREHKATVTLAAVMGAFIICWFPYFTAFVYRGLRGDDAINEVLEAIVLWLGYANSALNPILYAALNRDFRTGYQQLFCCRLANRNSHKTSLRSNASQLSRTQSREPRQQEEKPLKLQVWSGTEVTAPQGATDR
kappa (h) (KOP), sequence (P41145 whole entry): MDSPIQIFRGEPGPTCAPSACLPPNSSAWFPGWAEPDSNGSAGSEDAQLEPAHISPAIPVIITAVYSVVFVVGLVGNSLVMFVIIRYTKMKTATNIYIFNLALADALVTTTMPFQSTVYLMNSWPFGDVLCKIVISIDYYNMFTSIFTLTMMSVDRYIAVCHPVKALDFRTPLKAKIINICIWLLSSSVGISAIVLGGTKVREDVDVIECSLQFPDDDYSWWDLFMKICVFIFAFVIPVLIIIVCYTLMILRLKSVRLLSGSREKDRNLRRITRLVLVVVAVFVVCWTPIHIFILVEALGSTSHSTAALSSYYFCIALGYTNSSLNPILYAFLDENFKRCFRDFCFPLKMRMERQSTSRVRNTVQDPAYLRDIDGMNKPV
5-HT5a (h), sequence (P47898 whole entry): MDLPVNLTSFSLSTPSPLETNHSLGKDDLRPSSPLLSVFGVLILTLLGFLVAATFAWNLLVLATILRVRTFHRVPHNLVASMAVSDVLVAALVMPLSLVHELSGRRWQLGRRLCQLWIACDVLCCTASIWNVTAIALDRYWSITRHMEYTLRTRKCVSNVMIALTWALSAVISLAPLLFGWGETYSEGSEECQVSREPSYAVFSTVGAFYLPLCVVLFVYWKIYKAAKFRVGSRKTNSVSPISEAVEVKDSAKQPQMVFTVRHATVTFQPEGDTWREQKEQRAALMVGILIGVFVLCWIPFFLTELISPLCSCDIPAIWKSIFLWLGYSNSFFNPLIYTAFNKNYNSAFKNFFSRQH

| pIC50 [1] | % inhibition of the binding of radioactively labeled ligand [2] [%] | % inhibition of the binding of radioactively labeled ligand [3] [%] | % inhibition of the binding of radioactively labeled ligand [4] [%] | % inhibition of the binding of radioactively labeled ligand [5] [%] | % inhibition of the binding of radioactively labeled ligand [6] [%] | % inhibition of the binding of radioactively labeled ligand [7] [%] | Structure (SMILES) |
| --- | --- | --- | --- | --- | --- | --- | --- |
| 6.55 | – | – | – | – | – | – | Nc1nccc2c1n(-c1ccc(Oc3ccccc3)cc1)c(=O)n2[C@@H]1CCCN(C(=O)C(O)CO)C1 (stereo partly drawn) [Formula II, 4-amino-3-(4-phenoxyphenyl)-1-[(3R)-1-(2,3-dihydroxypropanoyl)-3-piperidyl]imidazo[4,5-c]pyridin-2-one] |
| 5.86 | 96.2 | 56.7 | 56.7 | 54.6 | 56.1 | 66.7 | Nc1nccc2c1n(-c1ccc(Oc3ccccc3)cc1)c(=O)n2[C@@H]1CCCNC1 [Formula III] |
| – | 65 | – | – | – | – | – | C=CC(=O)N1C[C@@H](O)C[C@@H](n2c(=O)n(-c3ccc(Oc4ccccc4)cc3)c3c(N)nccc32)C1 [Formula Ia, 4-amino-1-[(3R,5S)-5-hydroxy-1-prop-2-enoyl-3-piperidyl]-3-(4-phenoxyphenyl)imidazo[4,5-c]pyridin-2-one] |
| 7.47 | – | – | – | – | – | – | C=CC(=O)N1C[C@H](O)C[C@@H](n2c(=O)n(-c3ccc(Oc4ccccc4)cc3)c3c(N)nccc32)C1 [Formula Ib, 4-amino-1-[(3R,5R)-5-hydroxy-1-prop-2-enoyl-3-piperidyl]-3-(4-phenoxyphenyl)imidazo[4,5-c]pyridin-2-one] |
